Results taken from US8193235B2, “Compositions and methods for establishing and maintaining stem cells in an undifferentiated state” (University of Kansas, priority 2009, dated 2012).

What was measured:
E14 ES cells [1] = assay: ES cell culture in the absence of LIF (undifferentiated state, marker expression); type: cell-based, mouse
Protocol: E14 ES Cell Cultures. Cells were grown in ES-IMDM media (Lonza, Walkersville, Md.) in a feeder-free condition. ES-IMDM was supplemented with 15% serum, 10^5 U/100 ml of LIF (ESGRO, Millipore, Calif.) and 0.0124% monothioglycerol (MTG; Sigma Aldrich). Cells were grown for 3-5 days with change of medium every day. For inducing differentiation in monolayer culture and to determine the effect of Gö6983 in preventing differentiation, E14 cells were cultured on gelatin-coated plastics for 8 days without LIF. Details of experiments performed at clonal-density are described herein. To maintain E14 cells with Gö6983, serum supplemented ES-IMDM was used in the presence of 5 μM Gö6983 and was passed after every 3-5 days. For all assays involving elucidation of different signaling mechanism responsible for maintenance of pluripotency, cells from a ˜70% confluent ES culture plate were washed two times with 1× phosphate-buffered saline (PBS), trypsinized and plated on a 6-well tissue culture plate and treated with or without LIF or Gö6983 or different inhibitors for ˜10 hours followed by preparation of protein lysates and RNA. The PKCζ knocked-down E14 cells that were generated in this study were maintained in serum supplemented ES-IMDM on gelatin-coated plates in the absence of Gö6983 or LIF or any other inhibitor and passed after 3-5 days. For the experiments herein, cells were continuously cultured at least for 5 consecutive passages (>18 days) on gelatin-coated plates without significant differentiation.
Quantitative RT-PCR Analysis. RNA was extracted from different cell samples with TRIZOL reagent (Invitrogen). cDNA was prepared by annealing RNA (1 μg) with 250 ng of a 5:1 mixture of random and oligo(dT) primers heated at 68° C. for 10 minutes. This was followed by incubation with Moloney murine leukemia virus reverse transcriptase (50 units) (Invitrogen, Carlsbad, Calif.) combined with 10 mM DTT, RNasin (PROMEGA, Madison, Wis.), and 0.5 mM dNTPs at 42° C. for 1 hour. Reactions were diluted to a final volume of 100 μl and heat inactivated at 97° C. for 5 minutes. Twenty μl PCR reactions contained 2 μl cDNA, 10 μl SYBR Green Master Mix (Applied Biosystems, Foster City, Calif.) and corresponding primer sets. Relative expression levels were determined from a standard curve of serial dilutions of proliferating ES cell cDNA samples and were normalized to the expression of glyceraldehyde-3-phosphate dehydrogenase (GAPDH). At least three independent experiments were done for each set of data.
Immunostaining. Immunostaining of Oct4, and Nanog expression was performed using standard protocols. Briefly, ES cells were fixed in 4% paraformaldehyde/4% sucrose, permeabilized with 0.1% TRITON X 100 (Sigma). Cells were blocked by adding 1% fish gelatin (Sigma, St. Louis, Mo.) and incubated overnight at 4° C. with 200 μl of primary antibodies. Fluorescent-conjugated secondary antibodies (ALEXA FLUOR 488, and ALEXA FLUOR 568, Molecular Probes, Invitrogen) were used at 1:250 dilutions to visualize cells. Images were captured using a LEICA fluorescence microscope.

E14 cells = assay: Growth under serum free condition (N2B27 medium); type: cell-based, mouse
Protocol: Growth Under Serum Free Condition. E14 cells were maintained in serum-free N2B27 medium containing DMEM/F12 (Invitrogen), Neurobasal media (Invitrogen), B27 supplement (Invitrogen), N2 supplement (Invitrogen), BSA fraction V (Invitrogen), 2-mercaptoethanol (Sigma) and LIF/BMP4 (R&D Systems, Minneapolis, Minn.) with change of medium on alternate days and passed in every 2-4 days. For experiments with Gö6983, ˜5×10^4 E14 cells were plated on each well of a gelatin-coated 6-well plate having N2B27 medium without LIF/BMP4 and with or without 5 μM Gö6983 and cultured for 3-4 days before passing. Cells were analyzed for expression of different markers (by RT-PCR or immunofluorescence study). For experiments at clonal density, initially, E14 cells were cultured at high density in N2B27 medium with Gö6983 alone for 4 passages, then ˜200 cells were plated in each wells of a 96-well plate with Gö6983 in N2B27 and cultured for 7 more days. After 7 days, colonies were analyzed for Oct4 staining.

ES cells = assay: Quantitative Clonal Assay (survival at clonal density); type: cell-based, mouse; conditions: ≦10 μM
Protocol: Quantitative Clonal Assay. ES and iPS cells were dissociated into single cells using 0.05% trypsin/EDTA and 2-20 cells were plated on each well of a 96-well culture plate. The cells were cultured for 6-7 days, colonies were stained for Nanog, and the number of Nanog positive colonies was counted. […] This procedure was repeated for five consecutive passages (>30 days).

E14 ES cells [2] = assay: Cell Proliferation Assay; type: cell-based; conditions: Mus musculus
Protocol: Cell Proliferation Assay. E14 ES cells were seeded and incubated for 2 days in the presence of different concentrations of Gö6983. Cell proliferation was measured with […] 96 AQUEOUS One Solution Reagent (Promega, Madison, Wis.) following the manufacturer's protocol.

`COc1ccc2c(c1)c(C1=C(c3c[nH]c4ccccc34)C(=O)NC1=O)cn2CCCN(C)C` [Gö6983, 3-[1-[3-(dimethylamino)propyl]5-methoxy-1H-indol-3-yl]-4-(1H-indol-3-yl)-1H-pyrrole-2,5-dione] was tested, and the “ES cell differentiation at 2.5 μM” value (E14 ES cells [1]; 2.5 μM, without LIF) was “almost completely inhibited”, the “concentration that efficiently maintained undifferentiated ES cell colony / inhibits mouse ES cell differentiation” value (E14 ES cells [1]; concentration profile analysis, absence of LIF) was at least 2.5 µM and the “ES cell differentiation in the absence of LIF” value (E14 ES cells [1]; mouse ES cells, without LIF) was “did not differentiate and maintained their undifferentiated colony morphology”. For the same compound, the “induction of developmental genes required for lineage commitment” value (E14 ES cells [1]; quantitative RT-PCR, FIG. 1B) was “did not occur”, the “expression of pluripotency markers Oct4, Nanog, Sox2 and Rex-1” value (E14 ES cells [1]; quantitative RT-PCR, without LIF, FIG. 1A) was “maintained the expression of pluripotency markers” and the “ES cell pluripotency in media with different batches of fetal bovine serum” value (E14 ES cells [1]; serum from different sources) was “maintained ES cell pluripotency in all culture media irrespective of serum source”. For the same compound, the “cell survival when propagated at clonal density in N2B27 medium” value (E14 cells; N2B27 medium plus Gö6983, clonal density) was “poor”, the “induction of inhibitor-of-differentiation genes” value (E14 cells; N2B27 without serum, LIF, BMP4, FIG. 1C) was “not associated with the induction of inhibitor-of-differentiation genes” and the “undifferentiated state in N2B27 medium” value (E14 cells; without serum, LIF and BMP4) was “could be maintained in an undifferentiated state”. For the same compound, the “loss in ES cell survival at clonal density” value (ES cells) was “no significant loss” and the inhibition at 2.5 µM (E14 ES cells [2]) was about 30%.
